# Laboratory results reported in PubChem BioAssay (NCI).
# Several values for one entry are separate records, joined by “and”; a condition that tells them apart may be missing. Identical values can stand only once.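 Five concentrations, 48 hours, 96-well plates. GI50 marks 50% less growth. TGI marks complete inhibition of growth.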
# Assays:
# Assay in all cases: growth of human tumour cells (NCI), 48 h
# EKVX NSCLC = test system: EKVX NSCLC
# IGROV1 ovarian = test system: IGROV1 ovarian
# UACC-257 melanoma = test system: UACC-257 melanoma
# CAKI-1 renal = test system: CAKI-1 renal
# SK-MEL-5 melanoma = test system: SK-MEL-5 melanoma
# LOX IMVI melanoma = test system: LOX IMVI melanoma
# PC-3 prostate = test system: PC-3 prostate
# SF-539 CNS = test system: SF-539 CNS
# A498 renal = test system: A498 renal
# UACC-62 melanoma = test system: UACC-62 melanoma
Compound,GI50 (EKVX NSCLC),TGI (EKVX NSCLC),GI50 (IGROV1 ovarian),TGI (IGROV1 ovarian),GI50 (UACC-257 melanoma),TGI (UACC-257 melanoma),GI50 (CAKI-1 renal),TGI (CAKI-1 renal),GI50 (SK-MEL-5 melanoma),TGI (SK-MEL-5 melanoma),GI50 (LOX IMVI melanoma),TGI (LOX IMVI melanoma),GI50 (PC-3 prostate),TGI (PC-3 prostate),GI50 (SF-539 CNS),TGI (SF-539 CNS),GI50 (A498 renal),TGI (A498 renal),GI50 (UACC-62 melanoma),TGI (UACC-62 melanoma)
CCCc1cc(=O)n2c(C(=O)Nc3ccc(Cl)cc3C)c(C(=O)Nc3ccc(F)cc3)sc2n1,21.3 µM,> 150 µM,9.31 µM,33.6 µM,7.56 µM,42.4 µM,7.77 µM,42.3 µM,27.1 µM,> 150 µM,1.6 µM,19.9 µM,2.07 µM,11 µM,6.02 µM,22.7 µM,29.2 µM,99.8 µM,2.02 µM,12.1 µM
N[C@H](CCC(=O)N[C@@H](Cc1c[nH]c2ccccc12)C(=O)O)C(=O)O,> 100 µM,> 100 µM,> 100 µM,> 100 µM,> 100 µM,> 100 µM,> 100 µM,> 100 µM,> 100 µM,> 100 µM,> 100 µM,> 100 µM,> 100 µM,> 100 µM,> 100 µM,> 100 µM,> 100 µM,> 100 µM,> 100 µM,> 100 µM
Nc1cc(Br)c(-c2nnc(CCC(=O)c3nc4ccccc4[nH]3)o2)c(Br)c1,23.1 µM,> 100 µM,5.87 µM,62.7 µM,7.63 µM,> 100 µM,19.8 µM,> 100 µM,14.2 µM,> 100 µM,3.25 µM,46.4 µM,2.9 µM,> 100 µM,17.3 µM,60.8 µM,0.662 µM,10.5 µM,5.37 µM,> 100 µM
COc1ccc(-c2ccc3c(N4CCOC[C@@H]4C)nc(N4CCOC[C@@H]4C)nc3n2)cc1CO,0.00504 µM and 0.0229 µM,0.113 µM and 0.564 µM,0.00654 µM and < 0.01 µM,0.0744 µM and 0.0607 µM,0.00454 µM and 0.023 µM,0.0285 µM,0.00473 µM and 0.0302 µM,5.15 µM,0.00471 µM and 0.0264 µM,–,0.00476 µM and 0.028 µM,> 100 µM,0.00478 µM and < 0.0109 µM,> 100 µM,0.00431 µM and 0.026 µM,0.0831 µM and 0.268 µM,0.00121 µM and < 0.01 µM,0.00302 µM and < 0.0234 µM,0.00337 µM and 0.019 µM,–
C#CCOc1cccc(Nc2ncnc3c(NC(=O)C=C)cccc23)c1,28.3 µM,> 100 µM,17.8 µM,44.9 µM,31.4 µM,> 100 µM,26.4 µM,> 100 µM,14.8 µM,33.1 µM,15.7 µM,46.4 µM,15.9 µM,67.1 µM,14 µM,36 µM,24.4 µM,64.4 µM,12.3 µM,37.3 µM
NCCNCC1CCNCC1,–,> 100 µM,–,> 100 µM,–,> 100 µM,–,> 100 µM,–,> 100 µM,–,> 100 µM,–,> 100 µM,–,> 100 µM,–,> 100 µM,–,> 100 µM
COc1cc2c(Nc3cc(Cl)c(OC)c(Cl)c3)c(C#N)cnc2cc1OCCCN1CCN(C)CC1,1.17 µM,18.9 µM,0.189 µM,12 µM,1.67 µM,3.07 µM,0.606 µM,15.1 µM,1.37 µM,2.71 µM,1.06 µM,2.43 µM,7.06 µM,20.6 µM,1.01 µM,2.91 µM,0.904 µM,2.61 µM,2.73 µM,7.9 µM
CN(C)C(=S)SSC(=S)N(C)C,22 µM and > 73.4 µM and 18.6 µM,96.3 µM and > 100 µM and 35.1 µM,> 89.9 µM,> 100 µM and 29.3 µM,15 µM and 4.06 µM and 28.4 µM,30.5 µM and 39.9 µM and > 55.7 µM,15.9 µM and 61.5 µM and 21.1 µM,31.4 µM and > 100 µM and 40.1 µM,–,> 100 µM and 20.8 µM and 29.2 µM,14.9 µM and 5.4 µM and 22.7 µM,28.8 µM and 21.4 µM and > 55 µM,–,26.6 µM and > 100 µM and 32 µM,16.3 µM and 40.8 µM and 10.7 µM,31.9 µM and > 100 µM and > 45.8 µM,15.1 µM,> 100 µM,15.8 µM,32.8 µM and > 41.6 µM and 28.2 µM
Nc1ccccc1O.O.O=C(O)C1[O][Sb][O]C1C(=O)O (stereo unspecified),18.1 µM,38.9 µM,17.6 µM,33.2 µM,14.1 µM,28 µM,3.78 µM,12.3 µM,1.77 µM,3.99 µM,8.59 µM,29.9 µM,25.8 µM,> 100 µM,17.9 µM,37.4 µM,> 90.3 µM,> 100 µM,15.1 µM,30.3 µM
CN(C)CCNCCN,–,> 100 µM,–,> 100 µM,–,> 100 µM,–,> 100 µM,–,> 100 µM,–,> 100 µM,–,> 100 µM,–,> 100 µM,–,> 100 µM,–,> 100 µM
C=CC(=O)N1CN(C(=O)C=C)CN(C(=O)C=C)C1,9.02 µM,26.2 µM,3.34 µM,11.3 µM,1.82 µM,4.59 µM,1.63 µM,3.7 µM,9.61 µM,24.7 µM,1.72 µM,5.78 µM,9.16 µM,53.9 µM,2.98 µM,48.3 µM,15.3 µM,32.4 µM,3.49 µM,12 µM
